Assay results as given in patent US10618937B2, “Method of treating Alzheimer's disease” (INDUSTRY-ACADEMIC COOPERATION FOUNDATION GYEONGSANG …, priority 2016, dated 2020).

Key:
APP/PS1 mice = assay: Thioflavin S staining / immunofluorescence analysis of amyloid plaques in brain; format: in vivo; details: cortex of APP/PS1 mice, compared to Veh-injected APP/PS1 mice, P<0.001
Experimental: Adiponectin receptor-activating novel peptide (5AA1) was IP administered to 10 week old APP/PS1 mice once every 2.5 days for 45 days, and then, to prepare a slide section, the brains of the mice were fixed by transcardial perfusion of ice-cold 4% paraformaldehyde. The brains were fixed in 4% paraformaldehyde for 72 hours, and then, transferred to 20% sucrose and maintained at a temperature of 4° C. for 72 hours. The brains were placed in an optimal cutting temperature (OCT) compound (A.O., USA), frozen in liquid nitrogen, and sectioned into coronal plane (14 μm) in CM 3050C cryostat (Leica, Germany). Pictures of tissue sections were taken on ProbeOn Plus charged slides (Fisher, USA).
Immunofluorescence analysis was performed by using minor modifications of the method described in the existing study (Shah et al., 2014; Shah et al., 2015). Slides containing tissue sections were washed twice with a 0.01 M PBS solution for 15 minutes. Proteinase K was added to the tissue sections, which were then cultured at a temperature of 37° C. for 5 minutes. The tissue sections were then reacted in a blocking solution (5% normal goat serum, 0.3% Triton X-100, PBS) for 1 hour. The slides were reacted overnight with the primary antibody (the same antibody used in the ‘Western blot analysis’) and then reacted with secondary TRITC- or FITC-conjugated antibodies (diluted 1:50 in PBS; Santa Cruz) at room temperature for 90 minutes. The slides were dipped in Prolong Antifade reagent (Molecular Probe, Eugene, Oreg., USA) and stained. All stained slides were analyzed with a confocal laser scanning microscope (Flouview FV 1000). Amyloid plaques were visualized in brain slices after Thioflavin S staining. The brain slices were washed twice with 0.01 M PBS for 10 minutes, and then immersed in fresh 1% Thioflavin S solution at room temperature for 10 minutes. The brain slices were then immersed in 70% ethanol for 5 minutes, then washed twice with water, counterstained with propidium iodide (PI) and covered with cover glass.
Morphological analysis and signals were analyzed with Image J software (open source software provided by the US NIH), and the analysis results were expressed as IOD (Integral Optical Density). The ratio of the amyloid deposit site in the proposed area was also quantified by using Image-J software.

[1] = test system: APP-transfected SH-SY5Y cells; assay: MTT assay, cell viability of APP-transfected SH-SY5Y cells; format: cell-based, human; details: 0.5, 1, 5, 10 and 20 μM, 4 hours, compared to the untreated APP group
Experimental: The human APPswe/ind gene under the transcriptional control of the SV40 promoter/enhancer linked to the pCAX mammalian expression vector was obtained from addgene; The gene was deposited in the APP reservoir by Dennis Solkoe (plasmid 30145). The plasmid was amplified by DH5alpha strain in LB medium containing 50 μg/ml of ampicillin. The plasmid was purified by using a Qiagen plasmid mini kit (Cat #12143) and digested with EcoRV restriction enzyme and confirmed. The human neuroblastoma cell line SHYSY5Y used in the present in vitro experiments was cultured in DMEM medium containing 10% fetal bovine serum and 1% penicillin-streptomycin antibiotic (stock solutions concentrations of 10,000 U and 10,000 μg/ml, respectively)).
SH-SY5Y cells and HT-22 cells were inoculated into a culture flask containing the medium, and cultured until reaching the confluency of 70% to 75%. The pCAX vector with the APPswe/ind gene was transfected for 48 hours by using Lipofectamine 3000 (Life technologies) according to the manufacturers instructions.
APPswe/ind transfected SH-SY5Y cells were treated with novel peptide for 4 hours, followed by 3-[4, 5-dimethylthiazol-2-yl]-2,5-diphenyl tetrazolium bromide (MTT) analysis and Western blot analysis.
MTT assay was performed to measure the survival rate of cells treated with various concentrations of adiponectin receptor-activating novel peptide (5AA1). The cells were inoculated at 1×10^5 cells/well in a 96-well plate containing 200 μl of Dulbecco's modified Eagle's medium (DMEM). After 70% of cell confluence, SH-SY5Y cells were treated with 0.5 μM, 1 μM, 5 μM, 10 μM, and 20 μM of adiponectin receptor-activating novel peptide, and then cultured for 4 hours. At the end of the treatment, MTT (5 mg/ml in PBS) was added to each well, and the plate was cultured at a temperature of 37° C. for 4 hours. The formazan dissolved in dimethyl sulfoxide (DMSO) was added to the well and the plate was stirred in the agitator for 10 to 20 minutes. Then, the absorbance was measured at a wavelength of 550 nm to 570 nm (L1) and 620 nm to 650 nm (L2) by using a scanning microplate reader.
The L2 absorbance was measured for cell residuals and well imperfections, and the corrected absorbance (Abs.=L1−L2) of each well was calculated from 100× the absorbance of treated well/absorbance of the control well, and was used to measure the cell viability.

| Substance | integrated density of the Aβ plaques in the cortex (Thioflavin S) (APP/PS1 mice) | cell viability [1] |
| --- | --- | --- |
| GPCWP (adiponectin receptor-activating peptide) [5AA4] | significantly reduced | increased compared to the APP group, although the increase was not dependent on concentration |
| GPCYP (adiponectin receptor-activating peptide) [5AA3] | significantly reduced | increased compared to the APP group, although the increase was not dependent on concentration |
| GPWGP (adiponectin receptor-activating peptide) [5AA2] | significantly reduced | concentration-dependently increased |
